Where two headings read alike, the source gives them in different places.
Legend:
[1] = Metabolism stability test in liver microsomes; assay type: in vitro ADME; details: human liver microsomes
Protocol: Buffer A: 1 L solution of 100 mM potassium dihydrogen phosphate containing 1 mM EDTA (Sigma, V900157-100G) was prepared.
Buffer B: 1 L solution of 100 mM dipotassium hydrogen phosphate containing 1 mM EDTA was prepared.
Buffer C: 700 mL of buffer B was taken out and titrated with buffer A to pH 7.4.
2.1 10 μl of 10 mM compound to be tested and 10 μl of 10 mM ketanserin were taken out and 190 μl of pure acetonitrile was added to each of them to prepare 500 μM compound to be tested and ketanserin, respectively.
2.2 20 μl (20 mg/mL) of liver microsomes (Corning Lot. NO. 4133007) stock solution was added to 513.4 μl of buffer C on wet ice. 0.75 mg/mL liver microsomal solution was obtained.
2.3 1.5 μl of each of the above-mentioned compound to be tested and ketanserin solution was added to 498.5 μl of liver microsomal solution (0.7 5 mg/mL) respectively on wet ice. 1.5 μM mixed solution of compound to be tested and 1.5 μM mixed solution of ketanserin were obtained.
2.4 At the time points 0, 5, 15, 30, 45, and 60 min, 30 μl of the mixed solution of compound to be tested and 30 μl of the mixed solution of ketanserin were dispensed into the reaction plate on wet ice, respectively.
2.5 5 mg reduced coenzyme II (Roche, 10621706001) was weighed and dissolved in 1 mL of buffer C. 6 mM reduced coenzyme II solution was obtained. The reduced coenzyme II solution was dispensed into the reaction plate.
2.6 Imipramine was dissolved to give a 10 mM solution. 10 μl imipramine solution was added to 100 mL of blank acetonitrile to generate the internal reference.
2.7 At 0 min, 135 μL of iced acetonitrile (Merck (Lot. 1778229518)) containing the internal reference was added to each well and then 15 μL of buffer C was added.
2.8 The reaction plate was placed into a 37° C. water bath incubator for 5 min. In the reaction plate, 15 μL of reduced coenzyme II solution was added to each well to initiate the reaction, and the time keeping was started. At the time points of 5, 15, 30, 45, and 60 min, 135 μL of iced acetonitrile containing the internal reference was added to each well to terminate the reaction.
2.9 The reaction plate was sealed with an aluminum film, placed on a vibration mixer and shaken at 500 rpm for 5 min. The plate was then centrifuged in a centrifuge at 3750 rp for 15 min.
2.10 The sample was diluted with pure water in accordance with the ratio of 1:1 and detected by LC/MS. […]
Wherein, the K value and the proportional factor were calculated by those skilled in the art according to the methods described in the prior art and contained in the instructions of the liver microsome product.

[2] = biological target: T1, hERG potassium ion channel (Homo sapiens, UniProt Q12809); assay: Effect on the hERG potassium ion channel (CHO hERG cells, manual patch clamp); assay type: cell-based
T1 construct: host or cells: CHO (CHO hERG, passage P15)
T1 sequence (Q12809 whole entry): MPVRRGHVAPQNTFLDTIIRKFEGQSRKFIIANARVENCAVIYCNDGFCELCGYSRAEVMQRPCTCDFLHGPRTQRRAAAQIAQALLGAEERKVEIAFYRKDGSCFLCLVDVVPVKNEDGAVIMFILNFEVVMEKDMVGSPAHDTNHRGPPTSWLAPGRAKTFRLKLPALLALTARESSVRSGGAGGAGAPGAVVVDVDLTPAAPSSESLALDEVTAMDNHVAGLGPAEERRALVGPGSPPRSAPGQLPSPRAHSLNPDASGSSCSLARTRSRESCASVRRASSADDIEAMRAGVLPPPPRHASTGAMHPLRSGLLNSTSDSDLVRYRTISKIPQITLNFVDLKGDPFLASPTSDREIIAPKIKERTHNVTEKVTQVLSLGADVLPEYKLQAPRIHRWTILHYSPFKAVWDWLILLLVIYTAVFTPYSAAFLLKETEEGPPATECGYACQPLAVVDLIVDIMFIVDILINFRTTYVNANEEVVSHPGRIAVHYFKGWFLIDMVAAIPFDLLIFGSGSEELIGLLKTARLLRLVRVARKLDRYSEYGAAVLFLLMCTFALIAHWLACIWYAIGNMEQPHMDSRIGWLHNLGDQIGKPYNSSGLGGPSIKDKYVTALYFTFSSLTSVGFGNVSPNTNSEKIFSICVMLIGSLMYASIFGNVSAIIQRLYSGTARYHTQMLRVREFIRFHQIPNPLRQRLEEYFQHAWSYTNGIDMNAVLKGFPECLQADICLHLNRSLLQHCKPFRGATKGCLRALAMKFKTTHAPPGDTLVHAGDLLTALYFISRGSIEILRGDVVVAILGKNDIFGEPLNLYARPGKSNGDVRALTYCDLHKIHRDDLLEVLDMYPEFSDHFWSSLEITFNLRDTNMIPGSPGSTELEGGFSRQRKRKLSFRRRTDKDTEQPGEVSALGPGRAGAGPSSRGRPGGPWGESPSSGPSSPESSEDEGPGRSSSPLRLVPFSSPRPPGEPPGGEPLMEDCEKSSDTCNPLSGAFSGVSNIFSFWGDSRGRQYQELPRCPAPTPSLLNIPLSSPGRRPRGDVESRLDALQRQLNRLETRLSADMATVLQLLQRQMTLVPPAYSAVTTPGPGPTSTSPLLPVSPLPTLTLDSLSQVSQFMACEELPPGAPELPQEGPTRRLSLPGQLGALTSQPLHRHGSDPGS
Protocol: 2.1.1 Cells used in this experiment are CHO cell lines (supplied by Sophion Bioscience, Denmark) which are hERG cDNA transfectant and stably express hERG channels, cell progeny is P15. Cells are cultured in medium containing the following ingredients Invitrogen): Ham's F12 medium, 10% (v/v) inactivated fetal bovine serum, […] hygromycin B, […] Geneticin.
2.1.2 CHO hERG cells were grown in Petri dishes containing the above medium and cultured in an incubator containing 5% CO2 at 37° C. CHO hERG cells were transferred onto round glass plates in Petri dishes, and grown on the same culture medium and culture conditions as above 24 h to 48 h prior to the electrophysiological experiments, and the density of CHO hERG cells on each round glass plate needs to meet the requirements that the vast majority of cells are independent and individual.
The following solutions (supplied by Sophion) were used for electrophysiological recording. The reagents used in this test were provided by Sigma.
In this experiment, whole-cell current recording was performed using a manual patch clamp system (HEKA EPC-10 signal amplification and digital conversion system, purchased from HEKA Electronic, Germany). The round glass slide of which surface CHO hERG cells were grown on was placed in an electrophysiological recording slot under an inverted microscope. Perfused steadily with extracellular fluid in recording slot (approximately 1 ml per minute). A conventional whole-cell patch clamp current recording technique was used in the experiment. Unless otherwise specified, experiments were performed at normal room temperature (about 25° C.). Cell clamping was at −80 mV. […] The hERG potassium current recorded in the above steps could be superfused for test drug after the steady perfusion state of the extracellular fluid in the recording slot had been stabilized until the inhibition of the hERG current by the drug reached a steady state. […]
The test data were analyzed by the data analysis software provided by HEKA Patchmaster (V2x73.2), Microsoft Excel and Graphpad Prism 5.0.

Solubility experiment = assay type: physicochemical; details: listed as free base sample
Protocol: The solubility of crystal forms A, D, E-1, E-3, F and free base sample in buffer of 0.1M HCl, pH 4.5, pH 6.8 and water was tested at room temperature. In the test, the standard curves of free base sample and five crystal forms were plotted. Subsequently, 6 mg of API and five crystal form samples were weighed, respectively, and 2 ml of the solvent was added, the mixture was shaken at room temperature for 4 h, then ultrasonicated for 30 min, centrifuged, and the supernatant was taken out, filtered through a 0.45 μm filter and injected, and the solubility was measured, the results are shown in Table 28 (concentration is in mg/ml).

Nav1.2 = Nav1.2 (Homo sapiens, UniProt Q99250); assay: Selectivity for other ion channels: Nav1.2; assay type: cell-based
Nav1.2, sequence (Q99250 whole entry): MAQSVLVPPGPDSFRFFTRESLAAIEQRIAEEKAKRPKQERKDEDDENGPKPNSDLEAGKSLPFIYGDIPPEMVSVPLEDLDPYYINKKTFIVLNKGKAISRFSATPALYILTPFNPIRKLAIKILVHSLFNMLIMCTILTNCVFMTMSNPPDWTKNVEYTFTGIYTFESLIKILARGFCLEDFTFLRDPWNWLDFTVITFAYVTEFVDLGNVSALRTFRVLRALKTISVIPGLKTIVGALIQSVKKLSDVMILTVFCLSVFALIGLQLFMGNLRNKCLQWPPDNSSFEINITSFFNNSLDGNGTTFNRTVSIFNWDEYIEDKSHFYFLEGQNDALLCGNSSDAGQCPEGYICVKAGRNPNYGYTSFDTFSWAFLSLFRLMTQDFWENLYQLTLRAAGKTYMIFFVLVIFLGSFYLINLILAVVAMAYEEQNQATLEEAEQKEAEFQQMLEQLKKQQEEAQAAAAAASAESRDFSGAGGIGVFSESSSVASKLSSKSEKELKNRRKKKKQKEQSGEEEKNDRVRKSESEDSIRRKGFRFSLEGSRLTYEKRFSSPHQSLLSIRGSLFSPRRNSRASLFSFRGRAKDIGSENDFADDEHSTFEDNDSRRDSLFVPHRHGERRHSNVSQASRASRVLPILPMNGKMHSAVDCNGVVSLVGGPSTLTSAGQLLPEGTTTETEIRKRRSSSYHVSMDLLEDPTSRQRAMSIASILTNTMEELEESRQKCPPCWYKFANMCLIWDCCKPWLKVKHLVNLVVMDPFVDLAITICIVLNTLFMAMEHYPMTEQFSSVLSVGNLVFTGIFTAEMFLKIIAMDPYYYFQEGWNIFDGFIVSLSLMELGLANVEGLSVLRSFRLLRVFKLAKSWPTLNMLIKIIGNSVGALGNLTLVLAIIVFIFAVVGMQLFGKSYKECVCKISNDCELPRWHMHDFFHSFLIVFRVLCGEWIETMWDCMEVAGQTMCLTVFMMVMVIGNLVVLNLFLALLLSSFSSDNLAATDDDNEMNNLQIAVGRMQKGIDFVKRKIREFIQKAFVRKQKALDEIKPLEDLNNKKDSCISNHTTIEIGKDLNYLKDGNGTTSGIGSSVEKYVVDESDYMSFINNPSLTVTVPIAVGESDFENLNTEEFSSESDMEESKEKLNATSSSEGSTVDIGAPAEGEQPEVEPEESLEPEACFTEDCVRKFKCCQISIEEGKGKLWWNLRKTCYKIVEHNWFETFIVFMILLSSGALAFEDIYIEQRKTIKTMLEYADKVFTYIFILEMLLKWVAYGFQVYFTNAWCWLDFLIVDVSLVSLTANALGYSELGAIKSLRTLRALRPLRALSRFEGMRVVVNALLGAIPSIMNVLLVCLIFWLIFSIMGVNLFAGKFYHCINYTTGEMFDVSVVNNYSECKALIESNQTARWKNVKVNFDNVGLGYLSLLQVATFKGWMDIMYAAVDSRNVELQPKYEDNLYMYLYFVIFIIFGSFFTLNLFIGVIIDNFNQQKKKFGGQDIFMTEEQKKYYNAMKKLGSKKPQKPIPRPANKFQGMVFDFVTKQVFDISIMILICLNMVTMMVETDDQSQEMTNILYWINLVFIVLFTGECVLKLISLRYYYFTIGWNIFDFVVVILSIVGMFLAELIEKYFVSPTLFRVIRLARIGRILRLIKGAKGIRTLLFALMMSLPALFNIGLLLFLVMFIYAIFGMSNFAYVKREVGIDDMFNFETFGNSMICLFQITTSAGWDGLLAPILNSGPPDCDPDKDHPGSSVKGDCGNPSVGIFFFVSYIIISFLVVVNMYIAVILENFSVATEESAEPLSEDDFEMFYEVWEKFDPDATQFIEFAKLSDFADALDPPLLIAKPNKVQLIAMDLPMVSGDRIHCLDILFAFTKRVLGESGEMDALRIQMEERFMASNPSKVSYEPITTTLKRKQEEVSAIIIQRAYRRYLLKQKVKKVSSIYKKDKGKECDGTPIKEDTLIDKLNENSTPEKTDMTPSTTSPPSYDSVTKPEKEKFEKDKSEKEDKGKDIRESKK

Nav1.8 = Nav1.8 (Homo sapiens, UniProt Q9Y5Y9); assay: Selectivity for other ion channels: Nav1.8; assay type: cell-based
Nav1.8, sequence (Q9Y5Y9 whole entry): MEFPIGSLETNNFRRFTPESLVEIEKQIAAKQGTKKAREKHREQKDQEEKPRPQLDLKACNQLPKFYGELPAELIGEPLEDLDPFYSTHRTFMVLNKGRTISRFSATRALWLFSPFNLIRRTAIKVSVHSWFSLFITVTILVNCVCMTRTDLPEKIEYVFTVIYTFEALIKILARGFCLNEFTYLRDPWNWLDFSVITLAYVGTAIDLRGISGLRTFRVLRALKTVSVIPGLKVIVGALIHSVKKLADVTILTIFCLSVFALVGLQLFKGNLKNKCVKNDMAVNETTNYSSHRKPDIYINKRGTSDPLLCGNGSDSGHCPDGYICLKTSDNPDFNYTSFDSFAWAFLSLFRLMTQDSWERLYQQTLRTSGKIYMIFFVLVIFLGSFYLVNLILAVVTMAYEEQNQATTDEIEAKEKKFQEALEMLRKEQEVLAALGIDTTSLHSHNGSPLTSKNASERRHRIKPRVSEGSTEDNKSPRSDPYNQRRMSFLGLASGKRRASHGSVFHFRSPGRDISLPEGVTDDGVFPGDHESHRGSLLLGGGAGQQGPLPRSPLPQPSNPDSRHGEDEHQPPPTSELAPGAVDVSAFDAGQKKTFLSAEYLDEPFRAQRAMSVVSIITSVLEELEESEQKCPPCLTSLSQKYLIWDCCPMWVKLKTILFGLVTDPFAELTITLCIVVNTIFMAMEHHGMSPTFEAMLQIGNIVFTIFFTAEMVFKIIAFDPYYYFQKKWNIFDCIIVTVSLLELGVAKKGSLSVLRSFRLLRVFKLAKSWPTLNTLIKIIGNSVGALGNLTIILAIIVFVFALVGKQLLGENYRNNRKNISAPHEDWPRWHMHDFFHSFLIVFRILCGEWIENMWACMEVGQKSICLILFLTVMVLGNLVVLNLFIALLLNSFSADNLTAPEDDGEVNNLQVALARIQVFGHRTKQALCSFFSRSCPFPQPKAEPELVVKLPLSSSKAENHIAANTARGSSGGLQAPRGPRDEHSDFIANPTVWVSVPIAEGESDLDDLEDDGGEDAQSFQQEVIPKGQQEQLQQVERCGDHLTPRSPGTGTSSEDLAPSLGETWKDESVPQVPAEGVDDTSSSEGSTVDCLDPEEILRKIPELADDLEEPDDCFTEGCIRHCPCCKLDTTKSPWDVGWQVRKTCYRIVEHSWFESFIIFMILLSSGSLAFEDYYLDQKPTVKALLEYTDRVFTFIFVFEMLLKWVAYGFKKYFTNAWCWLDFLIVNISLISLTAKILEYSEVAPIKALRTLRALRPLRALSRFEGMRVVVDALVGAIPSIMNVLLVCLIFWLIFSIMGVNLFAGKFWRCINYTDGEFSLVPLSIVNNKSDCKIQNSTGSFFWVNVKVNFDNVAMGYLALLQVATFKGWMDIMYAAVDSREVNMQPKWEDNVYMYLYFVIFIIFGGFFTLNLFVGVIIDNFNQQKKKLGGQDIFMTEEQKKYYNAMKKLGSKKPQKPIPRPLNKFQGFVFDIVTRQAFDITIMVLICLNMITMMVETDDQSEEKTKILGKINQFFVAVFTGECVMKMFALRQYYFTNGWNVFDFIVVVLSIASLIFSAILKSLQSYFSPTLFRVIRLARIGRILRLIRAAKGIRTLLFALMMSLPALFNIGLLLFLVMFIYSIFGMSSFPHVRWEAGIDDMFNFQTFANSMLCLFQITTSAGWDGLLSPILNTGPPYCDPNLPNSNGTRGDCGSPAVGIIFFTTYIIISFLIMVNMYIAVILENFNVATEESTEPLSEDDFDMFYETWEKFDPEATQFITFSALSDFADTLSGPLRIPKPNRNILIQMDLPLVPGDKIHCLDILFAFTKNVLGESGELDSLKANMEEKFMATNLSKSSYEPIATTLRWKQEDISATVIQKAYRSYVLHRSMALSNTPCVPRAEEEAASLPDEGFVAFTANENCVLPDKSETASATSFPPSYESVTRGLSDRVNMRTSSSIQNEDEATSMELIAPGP

## Cc1cc(N2CCN(Cc3cc(F)c(C(=O)NS(=O)(=O)C4CC4)cc3Cl)CC2)ccc1Cl [the free base of formula X compound, 5-chloro-4-((4-(4-chloro-3-methylphenyl)piperazin-1-yl)methyl)-N-(cyclopropylsulfonyl)-2-fluorobenzamide]
[1]
  Clearance ratio: 20.12 mL/min/kg
  metabolic stability: good metabolic stability
[2]
  inhibitory activity on the hERG potassium ion channel: little inhibitory activity
[2]; read-out: hERG inhibitory concentration IC50
  IC50: > 10000 nM
[2]; read-out: hERG potassium ion channel (IC50/nM)
  IC50: > 10000 nM
Solubility experiment; 0.1M HCl, room temperature
  Solubility (mg/mL) 0.1M HCl: 0.065 mg/mL
Solubility experiment; buffer pH 4.5, room temperature
  Solubility (mg/mL) pH4.5: 0.001 mg/mL
Solubility experiment; buffer pH 6.8, room temperature
  Solubility (mg/mL) pH6.8: 0.021 mg/mL
Solubility experiment; water, room temperature
  Solubility (mg/mL) H2O: 0.027 mg/mL
Nav1.2
  IC50: 9600 nM
Nav1.8
  IC50: 18900 nM

Reference: US10947202B2, “Sodium ion channel inhibitors and pharmaceutically acceptable salts and polymorphs thereof and uses thereof” (SHANGHAI HAIYAN PHARMACEUTICAL TECHNOLOGY CO., LTD., priority 2017, dated 2021)
